Here are results for 4 molecules from article PMC10836395, “Investigation of how gate residues in the main channel affect the catalytic activity of Scytalidium thermophilum catalase” (Acta Crystallographica. Section D, Structural Biology, 2024).

One data set relates to CATPO variants. Kind of data set: Effects on the phenol oxidase activity of the CATPO variants taken together. It is filed as biochemical, Scytalidium thermophilum. The conditions noted are these: hydrogen peroxide 1–100 mM or ethanol 2–200 mM, before or after the addition of catechol. The procedure: (§1) All inhibition assays were performed in triplicate.
The target in the next data set is CATPO T188F variant (Scytalidium thermophilum (Humicola insolens), UniProt M4GGR5, T207F). Briefly: biochemical. The conditions noted are these: catechol oxidation by T188F; read-out: K i.
The next data set has as its target CATPO E484A variant (Scytalidium thermophilum (Humicola insolens), UniProt M4GGR5, E503A). Briefly: biochemical. Particulars: catechol oxidation by E484A; read-out: K i.
The next data set addresses CATPO (Scytalidium thermophilum (Humicola insolens), UniProt M4GGR5). Briefly: Inhibition of catechol oxidation. It is filed as biochemical.
In another data set the target is CATPO T188A variant (Scytalidium thermophilum (Humicola insolens), UniProt M4GGR5, T207A). Kind of data set: biochemical. The conditions noted are these: catechol oxidation by T188A; read-out: K i.
Another data set addresses CATPO E484I variant (Scytalidium thermophilum (Humicola insolens), UniProt M4GGR5, E503I). Kind of data set: biochemical. The conditions noted are these: catechol oxidation by E484I; read-out: K i.
For a further data set, the target named is CATPO T188D variant (Scytalidium thermophilum (Humicola insolens), UniProt M4GGR5, T207D). Briefly: biochemical. Particulars: catechol oxidation by T188D; read-out: K i.
In the next data set the target is CATPO T188I variant (Scytalidium thermophilum (Humicola insolens), UniProt M4GGR5, T207I). Briefly: biochemical. Particulars: catechol oxidation by T188I; read-out: K i.
Another data set deals with CATPO E484D variant (Scytalidium thermophilum (Humicola insolens), UniProt M4GGR5, E503D). Briefly: biochemical. The conditions noted are these: catechol oxidation by E484D; read-out: K i.
For a further data set, the target named is mammalian catalase. Details: method as in Vetrano et al., 2005. Particulars: ref Vetrano et al., 2005; cited from earlier work.
Substrate in data set [1]: Oc1ccccc1O
Kind of data set: Phenol oxidase activity (H2O2-independent) measured spectrophotometrically by product formation at pH 7.0, 60 C, Michaelis-Menten fit. The data set is classed as biochemical.

Substrate in data set [2]: Oc1ccc(O)cc1
Kind of data set: Spectrophotometric phenol oxidase assay without H2O2 at pH 7.0 and 60 °C, initial rates fitted to the Michaelis-Menten equation. It is filed as biochemical. The procedure:
as §1

Substrate in data set [3]: Cc1ccc(O)c(O)c1
Described as above. The data set is classed as biochemical. The procedure: as §1

Substrate in data set [4]: CC(C)(C)c1ccc(O)c(O)c1
The data set is described as above. The data set is classed as biochemical. On the procedure:
as §1

Substrate in data set [5]: CCn1c(=NN=c2sc3cc(S(=O)(=O)O)ccc3n2CC)sc2cc(S(=O)(=O)O)ccc21
Briefly: purified protein, by the assay type. The conditions noted are these: 60.0 °C.

For the molecule `CCO` [ethanol], the “effect of addition on phenol oxidase activity” value with CATPO variants is “not affected”.
For `[F-].[Na+]` [NaF, sodium fluoride], the Ki on CATPO T188F variant was 6.4 ± 0.4 mM; at CATPO E484A variant it was 7.8 ± 1.1 mM; on CATPO (catechol oxidation by CATPO, catechol 1 to 100 mM, read-out: K i), 0.67 ± 0.1 mM; on CATPO T188A variant it was 0.65 ± 0.1 mM; on CATPO E484I variant, 5.5 ± 0.2 mM; on CATPO T188D variant it was 5 ± 0.5 mM. Moreover, the Ki at CATPO T188I variant is 5.8 ± 0.4 mM; at CATPO E484D variant it was 0.66 ± 0.1 mM; at mammalian catalase, 0.75 mM. Besides, the inhibition type result at CATPO (catechol oxidase activity of wild-type CATPO, Lineweaver–Burk) is recorded as “uncompetitive”; with mammalian catalase it was “uncompetitive”.
For the molecule `OO` [hydrogen peroxide], the “effect of addition on phenol oxidase activity” value in the data set with CATPO variants was “not affected”.

B1: CATPO (Mycothermus thermophilus) (protein)
chain: TCPFADPAALYSRQDTTSGQSPLAAYEVDDSTGYLTSDVGGPIQDQTSLKAGIRGPTLLEDFMFRQKIQHFDHERVPERAVHARGAGAHGTFTSYADWSNITAASFLNATGKQTPVFVRFSTVAGSRGSADTARDVHGFATRFYTDEGNFDIVGNNIPVFFIQDAIQFPDLIHSVKPRPDNEIPQAATAHDSAWDFFSQQPSTMHTLFWAMSGHGIPRSYRHMDGFGVHTFRFVKDDGSSKLIKWHFKSRQGKASLVWEEAQVLSGKNADFHRQDLWDAIESGNGPEWDVCVQIVDESQAQAFGFDLLDPTKIIPEEYAPLTKLGLLKLDRNPTNYFAETEQVMFQPGHIVRGIDFTEDPLLQGRLFSYLDTQLNRNGGPNFEQLPINMPRVPIHNNNRDGAGQMFIHRNKYPYTPNTLNSGYPRQANQNAGRGFFTAPGRTASGALVREVSPTFNDHWSQPRLFFNSLTPVEQQFLVNAMRFEISLVKSEEVKKNVLTQLNRVSHDVAVRVAAAIGLGAPDADDTYYHNNKTAGVSIVGSGPLPTIKTLRVGILATTSESSALDQAAQLRTRLEKDGLVVTVVAETLREGVDQTYSTADATGFDGVVVVDGAAALFASTASSPLFPTGRPLQIFVDAYRWGKPVGVCGGKSSEVLDAADVPEDGDGVYSEESVDMFVEEFEKGLATFRFTDRFALDS
notes: recombinant, pET-28-TEV-CATPO; contains heme d; Rz 0.8
For the molecule B1, the Km in data set [1] amounted to 33 ± 0.5 mM; in [2], 45 ± 1.5 mM; in data set [3] it was 35 ± 0.3 mM; in data set [4], 36 ± 1.0 mM; in data set [5], 50 ± 1.5 mM. Moreover, in data set [1], the kcat was 7300 ± 365 s⁻¹. Also, the kcat/Km in data set [1] turned out to be 220000 ± 13000 M⁻¹ s⁻¹.

As usually defined, the Km is the substrate concentration at which the rate is half of its maximum. The term kcat denotes the number of substrate molecules converted per active site and unit of time at saturation. By kcat/Km is commonly meant the turnover number divided by the Michaelis constant.
